Refractive index and mass density data for 6 compounds are collected here from the NIST ThermoML archive (doi:10.1021/je1001544).

± gives the expanded uncertainty stated by the source.

Data set [1] in a line: refractive index (Na D-line) (dimensionless). To be noted: 298.15 K; 101.33 kPa; Liquid; Standard Abbe refractometry.
For data set [2] the following is noted: 298.15 K; 101.33 kPa; Liquid; Vibrating tube method.

As for `CCCCCC` [hexane], the refractive index – broadly, the speed of light in vacuum divided by its phase velocity in the sample – in data set [1] was found to be 1.37234 ± 0.00037. Besides, the mass density (as a rule, the mass of a sample divided by its volume) in data set [2] was 655.19 ± 0.25 kg/m3.
For `c1ccccc1` [benzene] the same measures were 1.49774 ± 0.00031 and 873.57 ± 0.1 kg/m3.
As for `CCCCCCC` [heptane], the refractive index in data set [1] is 1.38515 ± 0.00033. In data set [2], the mass density is on record as 679.56 ± 0.18 kg/m3.
With `CCOS(=O)(=O)[O-].CCn1cc[n+](C)c1` [1-ethyl-3-methylimidazolium ethyl sulfate], the refractive index in data set [1] came out at 1.4791 ± 0.00037. For the same compound, the mass density in data set [2] was 1237.23 ± 0.43 kg/m3.
As to `CCCCCCCC` [octane], the refractive index in data set [1] is given as 1.39519 ± 0.00033. In addition, in data set [2], the mass density amounted to 698.6 ± 0.18 kg/m3.
On the same counts, the results for `CCCCCCCCC` [nonane] are 1.40326 ± 0.00037 and 713.99 ± 0.25 kg/m3.
